The subject of assay [1] is Wild-typed SAM/SAH riboswitch (Cy3-U20, 3' DNA extension, annealed to anchor DNA) (DNA:RNA, riboswitch, nucleotides 1-52 of strand 1 RNA, 53-70 DNA; strand 2 DNA) GAUACCUGUCACAACGGCUUCCUGGCGUGACGAGGUGACCUCAGUGGAGCAAACCGCTGCCGTCGCTCCG/CGGAGCGACGGCAGCGGT
In words: smFRET titration, two-state isotherm (pre-folded). The note with it: 100 mM KCl, 2 mM MgCl2, 40 mM HEPES pH 7.5, immobilised RNA, text b38 gives 10 μM.

For assay [2], the system named is T_G16P (DNA:RNA, riboswitch, purine (adenine lacking N6) at 16 (replaces G, written as G) of strand 1; nucleotides 1-52 RNA, 53-70 DNA; strand 2 DNA) GAUACCUGUCACAACGGCUUCCUGGCGUGACGAGGUGACCUCAGUGGAGCAAACCGCTGCCGTCGCTCCG/CGGAGCGACGGCAGCGGT
The assay can be described thus: smFRET titration, two-state isotherm (pre-folded). The note with it: 100 mM KCl, 2 mM MgCl2, 40 mM HEPES pH 7.5, immobilised RNA.

In assay [3] the test system is Wild-typed SAM/SAH riboswitch (Cy3-U20, 3' DNA extension, annealed to anchor DNA) (DNA:RNA, riboswitch, nucleotides 1-52 of strand 1 RNA, 53-70 DNA; strand 2 DNA) GAUACCUGUCACAACGGCUUCCUGGCGUGACGAGGUGACCUCAGUGGAGCAAACCGCTGCCGTCGCTCCG/CGGAGCGACGGCAGCGGT
The assay can be described thus: smFRET vectorial folding (Rep-X unwinding), two-state isotherm. The settings on record: 100 mM KCl, 2 mM MgCl2, 40 mM HEPES pH 7.5, 2 mM ATP, RNA released from cDNA heteroduplex, non-equilibrium.

Assay [4] deals with P1x_C26Z (DNA:RNA, riboswitch, zebularine at 26 (replaces C) of strand 1; nucleotides 1-52 RNA, 53-70 DNA; strand 2 DNA) GAUACCUGUCACAACGGCUUCCUGGCGUGACGAGGUGACCUCAGUGGAGCAAACCGCTGCCGTCGCTCCG/CGGAGCGACGGCAGCGGT
In words: smFRET titration, two-state isotherm (pre-folded). The settings on record: 100 mM KCl, 2 mM MgCl2, 40 mM HEPES pH 7.5, immobilised RNA, text b44 gives 41 μM.

Assay [5] relates to P1x_A14P (DNA:RNA, riboswitch, purine (adenine lacking N6) at 14 (replaces A) of strand 1; nucleotides 1-52 RNA, 53-70 DNA; strand 2 DNA) GAUACCUGUCACAACGGCUUCCUGGCGUGACGAGGUGACCUCAGUGGAGCAAACCGCTGCCGTCGCTCCG/CGGAGCGACGGCAGCGGT
The assay can be described thus: smFRET titration, two-state isotherm (pre-folded). The note with it: 100 mM KCl, 2 mM MgCl2, 40 mM HEPES pH 7.5, immobilised RNA.

Assay [6] deals with PK_C18A/G49U/C50U (DNA:RNA, riboswitch, nucleotides 1-52 of strand 1 RNA, 53-70 DNA; strand 2 DNA) GAUACCUGUCACAACGGAUUCCUGGCGUGACGAGGUGACCUCAGUGGAUUAAACCGCTGCCGTCGCTCCG/CGGAGCGACGGCAGCGGT
In words: smFRET titration, two-state isotherm (pre-folded). The note with it: 100 mM KCl, 2 mM MgCl2, 40 mM HEPES pH 7.5, immobilised RNA.

For assay [7], the system named is P1x_A14C/C26U (DNA:RNA, riboswitch, nucleotides 1-52 of strand 1 RNA, 53-70 DNA; strand 2 DNA) GAUACCUGUCACACCGGCUUCCUGGUGUGACGAGGUGACCUCAGUGGAGCAAACCGCTGCCGTCGCTCCG/CGGAGCGACGGCAGCGGT
In words: smFRET titration, two-state isotherm (pre-folded). The settings on record: 100 mM KCl, 2 mM MgCl2, 40 mM HEPES pH 7.5, immobilised RNA.

The record followed here is article PMC10516623 (2023).

Structures are written as SMILES. A value given as a limit tells only on which side of the number the result lay.

As a reminder, the Kd is the free concentration of one partner at which half of the binding sites on the other are occupied at equilibrium, for simple one-to-one binding. As usually defined, the apparent Kd is the concentration giving half-maximal binding under the conditions of the assay. For `C[S+](CC[C@H](N)C(=O)O)C[C@H]1O[C@@H](n2cnc3c(N)ncnc32)[C@H](O)[C@@H]1O` (stereo partly shown), the Kd was 11 µM in assay [1]; 607 µM in assay [2]; 42 µM in assay [4]; 61 µM in assay [5]; over 1000 µM in assay [6]; 593 µM in assay [7]. For the same compound, the “apparent Kd” value in assay [3] came out at 108 µM.
